Test results from publication PMC10866072, “Design, synthesis, molecular modelling and biological evaluation of novel 6-amino-5-cyano-2-thiopyrimidine derivatives as potent anticancer agents against leukemia and apoptotic inducers” (Journal of Enzyme Inhibition and Medicinal Chemistry, 2024).

Assays:
SR = format: cell-based; conditions: one dose 10^-5 M, 48 h
A498 = format: cell-based; conditions: one dose 10^-5 M, 48 h
A549/ATCC = format: cell-based; conditions: one dose 10^-5 M, 48 h
HL-60(TB) = format: cell-based; conditions: one dose 10^-5 M, 48 h
SW-620 = format: cell-based; conditions: one dose 10^-5 M, 48 h
MDA-MB-435 = format: cell-based; conditions: one dose 10^-5 M, 48 h
MALME-3M = format: cell-based; conditions: one dose 10^-5 M, 48 h
SNB-75 = format: cell-based; conditions: one dose 10^-5 M, 48 h
K-562 = format: cell-based; conditions: 48 h
SK-MEL-2 = format: cell-based; conditions: one dose 10^-5 M, 48 h
SK-MEL-28 = format: cell-based; conditions: one dose 10^-5 M, 48 h
HT29 = format: cell-based; conditions: 48 h
[1] = tested on: full NCI 60 cell lines panel; conditions: for activity on all 60 cancer cell lines tested (in words): one dose
OVCAR-5 = format: cell-based; conditions: one dose 10^-5 M, 48 h
TK-10 = format: cell-based; conditions: one dose 10^-5 M, 48 h
HCC-2998 = format: cell-based; conditions: one dose 10^-5 M, 48 h
MDA-MB-468 = format: cell-based; conditions: one dose 10^-5 M, 48 h
OVCAR-8 = format: cell-based; conditions: one dose 10^-5 M, 48 h
NCI-H226 = format: cell-based; conditions: one dose 10^-5 M, 48 h
HS 578T = format: cell-based; conditions: one dose 10^-5 M, 48 h, HS 578T
SNB-19 = format: cell-based; conditions: one dose 10^-5 M, 48 h
ACHN = format: cell-based; conditions: one dose 10^-5 M, 48 h
NCI-H522 = format: cell-based; conditions: one dose 10^-5 M, 48 h
RXF 393 = format: cell-based; conditions: one dose 10^-5 M, 48 h
HCT-116 = format: cell-based; conditions: one dose 10^-5 M, 48 h
HOP-62 = format: cell-based; conditions: one dose 10^-5 M, 48 h
RPMI-8226 = format: cell-based; conditions: one dose 10^-5 M, 48 h
OVCAR-4 = format: cell-based; conditions: one dose 10^-5 M, 48 h
KM12 = format: cell-based; conditions: one dose 10^-5 M, 48 h
HCT-15 = format: cell-based; conditions: one dose 10^-5 M, 48 h
SF-295 = format: cell-based; conditions: one dose 10^-5 M, 48 h
MOLT-4 = format: cell-based; conditions: one dose 10^-5 M, 48 h
UACC-257 = format: cell-based; conditions: one dose 10^-5 M, 48 h
EKVX = format: cell-based; conditions: one dose 10^-5 M, 48 h
LOX IMVI = format: cell-based; conditions: one dose 10^-5 M, 48 h
OVCAR-3 = format: cell-based; conditions: one dose 10^-5 M, 48 h
CAKI-1 = format: cell-based; conditions: one dose 10^-5 M, 48 h
DU-145 = format: cell-based; conditions: one dose 10^-5 M, 48 h
MCF7 = format: cell-based; conditions: one dose 10^-5 M, 48 h
SK-MEL-5 = format: cell-based; conditions: one dose 10^-5 M, 48 h
U251 = format: cell-based; conditions: 48 h
SK-OV-3 = format: cell-based; conditions: one dose 10^-5 M, 48 h
NCI-H23 = format: cell-based; conditions: one dose 10^-5 M, 48 h
SF-268 = format: cell-based; conditions: one dose 10^-5 M, 48 h
NCI-H460 = format: cell-based; conditions: one dose 10^-5 M, 48 h
M14 = format: cell-based; conditions: one dose 10^-5 M, 48 h
T-47D = format: cell-based; conditions: one dose 10^-5 M, 48 h
UO-31 = format: cell-based; conditions: one dose 10^-5 M, 48 h
PC-3 = format: cell-based; conditions: one dose 10^-5 M, 48 h
IGROV1 = format: cell-based; conditions: 48 h
786-0 = format: cell-based; conditions: one dose 10^-5 M, 48 h
SF-539 = format: cell-based; conditions: one dose 10^-5 M, 48 h
CCRF-CEM = format: cell-based; conditions: one dose 10^-5 M, 48 h
HOP-92 = format: cell-based; conditions: one dose 10^-5 M, 48 h
SN12C = format: cell-based, human; conditions: one dose 10^-5 M, 48 h
UACC-62 = format: cell-based; conditions: one dose 10^-5 M, 48 h
MDA-MB-231/ATCC = format: cell-based; conditions: one dose 10^-5 M, 48 h
[2] = Homo sapiens, read-out: % growth

4-Amino-6–(4-chlorophenyl)-2-mercaptopyrimidine-5-carboximidohydrazide [Compound 2b]
% growth (SR): 81.00%
% growth (A498): 116.23%
% growth (A549/ATCC): 110.21%
% growth (HL-60(TB)): 98.64%
% growth (SW-620): 103.87%
% growth (MDA-MB-435): 96.65%
% growth (MALME-3M): 109.72%
% growth (SNB-75): 99.29%
% growth (K-562; one dose 10^-5 M): 98.62%
% growth (SK-MEL-2): 109.65%
% growth (SK-MEL-28): 108.56%
% growth (HT29; one dose 10^-5 M): 98.85%
activity on all 60 cancer cell lines tested (in words) [1]: weak activity
Mean % growth ([1]; one dose 10^-5 M, 48 h, mean over all cell lines): 105.07%
% growth (OVCAR-5): 103.26%
% growth (TK-10): 113.67%
% growth (HCC-2998): 105.50%
% growth (MDA-MB-468): 102.27%
% growth (OVCAR-8): 110.09%
% growth (NCI-H226): 121.25%
% growth (HS 578T): 128.54%
% growth (SNB-19): 98.41%
% growth (ACHN): 102.02%
% growth (NCI-H522): 98.92%
% growth (RXF 393): 119.00%
% growth (HCT-116): 119.61%
% growth (HOP-62): 113.92%
% growth (RPMI-8226): 94.54%
% growth (OVCAR-4): 103.90%
% growth (KM12): 100.03%
% growth (HCT-15): 103.81%
% growth (SF-295): 93.17%
% growth (MOLT-4): 99.19%
% growth (UACC-257): 114.55%
% growth (EKVX): 100.22%
% growth (LOX IMVI): 109.11%
% growth (OVCAR-3): 112.26%
% growth (CAKI-1): 99.31%
% growth (DU-145): 106.23%
% growth (MCF7): 98.64%
% growth (SK-MEL-5): 100.02%
% growth (U251; one dose 10^-5 M): 105.90%
% growth (SK-OV-3): 123.58%
% growth (NCI-H23): 107.36%
% growth (SF-268): 108.46%
% growth (NCI-H460): 107.93%
% growth (M14): 111.66%
% growth (T-47D): 96.25%
% growth (UO-31): 93.82%
% growth (PC-3): 111.23%
% growth (IGROV1; one dose 10^-5 M): 103.95%
% growth (786-0): 99.27%
% growth (SF-539): 103.32%
% growth (CCRF-CEM): 100.09%
% growth (HOP-92): 107.66%
% growth (SN12C): 99.89%
% growth (UACC-62): 100.76%
% growth (MDA-MB-231/ATCC): 100.62%

N=C(NN=Cc1ccc([N+](=O)[O-])cc1)c1c(N)nc(S)nc1-c1ccc(Cl)cc1 [Compound 4i, 4-amino-6–(4-chlorophenyl)-2-mercapto-N'-[(4-nitrophenyl)methylene] pyrimidine-5-carboximidohydrazide]
percent cell growth at 10 µM (SR; Homo sapiens): 96.5%
% growth at 10 µM (A498; Homo sapiens): 114%
% growth at 10 µM (A549/ATCC; Homo sapiens): 103%
% growth at 10 µM (HL-60(TB); Homo sapiens): 97.3%
% growth at 10 µM (SW-620; Homo sapiens): 102%
activity at 10 µM (MDA-MB-435; [2]): 101%
% growth at 10 µM (MALME-3M; Homo sapiens): 96.9%
% growth at 10 µM (SNB-75; Homo sapiens): 115%
% growth at 10 µM (K-562; Homo sapiens, K562, one dose 10^-5 M): 96.3%
% growth at 10 µM (SK-MEL-2; Homo sapiens): 108%
% cell growth at 10 µM (SK-MEL-28; Homo sapiens): 101%
% growth at 10 µM (HT29; Homo sapiens, HT-29, one dose 10^-5 M): 101%
activity at 10 µM ([1]; Homo sapiens, 60 cell, 48 h, read-out: Mean % growth): 101%
activity on all 60 cancer cell lines tested (in words) [1]: weak activity
percent cell growth at 10 µM (OVCAR-5; Homo sapiens): 101%
% cell growth at 10 µM (TK-10; Homo sapiens): 112%
% growth at 10 µM (HCC-2998; Homo sapiens): 104%
percent cell growth at 10 µM (MDA-MB-468; Homo sapiens): 114%
% growth of cells at 10 µM (OVCAR-8; Homo sapiens): 105%
% growth at 10 µM (NCI-H226; Homo sapiens): 150%
activity at 10 µM (HS 578T; [2]): 118%
activity at 10 µM (SNB-19; [2]): 94.2%
% growth at 10 µM (ACHN; Homo sapiens): 92.1%
% growth at 10 µM (NCI-H522; Homo sapiens): 92.9%
activity at 10 µM (RXF 393; Homo sapiens, RXF 393, 48 h, read-out: % growth): 108%
activity at 10 µM (HCT-116; [2]): 108%
% growth at 10 µM (HOP-62; Homo sapiens): 95%
% growth at 10 µM (RPMI-8226; Homo sapiens): 89%
% growth at 10 µM (OVCAR-4; Homo sapiens): 98.6%
% growth at 10 µM (KM12; Homo sapiens): 99.2%
activity at 10 µM (HCT-15; [2]): 95.2%
% cell growth at 10 µM (SF-295; Homo sapiens): 96.7%
activity at 10 µM (MOLT-4; [2]): 105%
percent cell growth at 10 µM (UACC-257; Homo sapiens): 96.5%
% cell growth at 10 µM (EKVX; Homo sapiens): 95.8%
activity at 10 µM (LOX IMVI; [2]): 106%
% growth at 10 µM (OVCAR-3; Homo sapiens): 119%
% growth at 10 µM (CAKI-1; Homo sapiens, CAKI-1, 48 h): 89.6%
% growth at 10 µM (DU-145; Homo sapiens): 108%
activity at 10 µM (MCF7; [2]): 90.7%
activity at 10 µM (SK-MEL-5; [2]): 101%
% growth at 10 µM (U251; Homo sapiens, U-251, one dose 10^-5 M): 98.8%
% growth at 10 µM (SK-OV-3; Homo sapiens): 103%
activity at 10 µM (NCI-H23; [2]): 106%
activity at 10 µM (SF-268; [2]): 117%
activity at 10 µM (NCI-H460; [2]): 104%
% growth at 10 µM (M14; Homo sapiens): 107%
activity at 10 µM (T-47D; Homo sapiens, T47D, read-out: % growth): 90.5%
% cell growth at 10 µM (UO-31; Homo sapiens, UO-31, 48 h): 91%
percent cell growth at 10 µM (PC-3; Homo sapiens): 90.1%
activity at 10 µM (IGROV1; Homo sapiens, IGROV-1, one dose 10^-5 M, read-out: % growth): 99.4%
% growth at 10 µM (786-0; Homo sapiens): 103%
% growth at 10 µM (SF-539; Homo sapiens): 96.7%
% cell growth at 10 µM (CCRF-CEM; Homo sapiens): 88.6%
% growth at 10 µM (HOP-92; Homo sapiens): 97%
% growth at 10 µM (SN12C; Homo sapiens): 92.6%
% growth at 10 µM (UACC-62; Homo sapiens): 94.6%
% growth at 10 µM (MDA-MB-231/ATCC; Homo sapiens): 96%
